Source: patent US6908940B2, “Imidazole compounds and their use as adenosine deaminase inhibitors” (Fujisawa Pharmaceutical Co., Ltd., priority 2000, dated 2005)

Target: T1, Human ADA (Homo sapiens, UniProt P00813)
T1 construct: made in house
T1 sequence (P00813 1-363): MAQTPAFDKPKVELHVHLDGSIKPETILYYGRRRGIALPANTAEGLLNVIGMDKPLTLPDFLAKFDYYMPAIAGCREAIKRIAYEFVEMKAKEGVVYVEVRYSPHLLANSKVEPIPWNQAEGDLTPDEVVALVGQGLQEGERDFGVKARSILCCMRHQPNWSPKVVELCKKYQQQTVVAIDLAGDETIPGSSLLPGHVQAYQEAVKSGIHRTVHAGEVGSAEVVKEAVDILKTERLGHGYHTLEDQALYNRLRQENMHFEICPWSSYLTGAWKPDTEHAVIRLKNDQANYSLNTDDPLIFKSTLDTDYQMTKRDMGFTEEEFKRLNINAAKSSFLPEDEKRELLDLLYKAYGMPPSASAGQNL
Assay: Adenosine Deaminase (ADA) Enzyme Assay
Type: biochemical
Settings: 50% inhibition of Vmax vs vehicle; 0.16 μg/ml ADA, 0.1 mM adenosine, phosphate buffer saline pH 7.4, room temperature, decrease in A265 for 3 minutes
Experimental: Adenosine Deaminase (ADA) Enzyme Assay
• 1-{(2S,3R)-2-hydroxy-5-[2-(3-(4-chlorophenyl)propoxy)-phenyl]-3-pentyl}imidazole-4-carboxamide (Example 8) • 1-[(2S,3R)-2-hydroxy-5-(7-chloro-1-naphthyl)-3-pentyl]-imidazole-4-carboxamide (Example 12) Test Method:
The reaction velocity (V) is measured by a change in absorbance at 265 nm (A265) resulting from the deamination of adenosine. Human ADA was expressed and purified from ADA-deficient bacterial strain. Reaction mixtures of a total volume of 200 μl contained 0.16 μg/ml of ADA and 0.1 mM of adenosine and test compound in 10 mM phosphate buffer saline (pH 7.4). The reaction was started by addition of ADA to a mixture of adenosine and test compound. The reaction was followed at room temperature by recording decrease in A265 for 3 minutes in SPECTRAmax 250 (Molecular Devices, USA) to automatically calculate Vmax. Inhibitory potency of test compound was expressed as IC50 value, the drug concentration required to produce 50% inhibition of Vmax in comparison to vehicle treatment.

Compound	IC50 [nM]
C[C@H](O)[C@@H](CCc1cccc2ccc(Cl)cc12)n1cnc(C(N)=O)c1 [Example 12, 1-[(2S,3R)-2-hydroxy-5-(7-chloro-1-naphthyl)-3-pentyl]imidazole-4-carboxamide]	< 20
C[C@H](O)[C@@H](CCc1ccccc1OCCCc1ccc(Cl)cc1)n1cnc(C(N)=O)c1 [Example 8, 1-{(2S,3R)-2-hydroxy-5-[2-(3-(4-chlorophenyl)propoxy)phenyl]-3-pentyl}imidazole-4-carboxamide]	< 20
